Among the data in US9999622B2, “Pyrazolothiazole compound and medicine comprising same” (NIPPON SHINYAKU CO., LTD., priority 2014, dated 2018) are IC50 values, retold here.

Molecules are shown by their SMILES.

Type in all cases: biochemical
For one test, the target named is T1, JAK2 (Homo sapiens, UniProt O60674).
T1 construct: purchased Carna Biosciences, Inc
In words: JAK tyrosine kinase inhibitory activity in the presence of 1 mM ATP (ELISA), JAK2. In a few lines:
(§1)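 ELISA read-out: HRP-labelled anti-phosphotyrosine antibody with TMB, absorbance 450 nm, after 1 h kinase reaction at 30 °C in presence of 1 mM ATP. Kinase diluted to 7.5 nM (JAK1) or 0.75 nM (JAK2/JAK3) in Tris-HCl pH 7.5 buffer with DTT; compounds tested in duplicate.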

In the next test the target is T2, JAK1 (Homo sapiens, UniProt P23458).
T2 construct: purchased Carna Biosciences, Inc
T2 sequence (P23458 whole entry): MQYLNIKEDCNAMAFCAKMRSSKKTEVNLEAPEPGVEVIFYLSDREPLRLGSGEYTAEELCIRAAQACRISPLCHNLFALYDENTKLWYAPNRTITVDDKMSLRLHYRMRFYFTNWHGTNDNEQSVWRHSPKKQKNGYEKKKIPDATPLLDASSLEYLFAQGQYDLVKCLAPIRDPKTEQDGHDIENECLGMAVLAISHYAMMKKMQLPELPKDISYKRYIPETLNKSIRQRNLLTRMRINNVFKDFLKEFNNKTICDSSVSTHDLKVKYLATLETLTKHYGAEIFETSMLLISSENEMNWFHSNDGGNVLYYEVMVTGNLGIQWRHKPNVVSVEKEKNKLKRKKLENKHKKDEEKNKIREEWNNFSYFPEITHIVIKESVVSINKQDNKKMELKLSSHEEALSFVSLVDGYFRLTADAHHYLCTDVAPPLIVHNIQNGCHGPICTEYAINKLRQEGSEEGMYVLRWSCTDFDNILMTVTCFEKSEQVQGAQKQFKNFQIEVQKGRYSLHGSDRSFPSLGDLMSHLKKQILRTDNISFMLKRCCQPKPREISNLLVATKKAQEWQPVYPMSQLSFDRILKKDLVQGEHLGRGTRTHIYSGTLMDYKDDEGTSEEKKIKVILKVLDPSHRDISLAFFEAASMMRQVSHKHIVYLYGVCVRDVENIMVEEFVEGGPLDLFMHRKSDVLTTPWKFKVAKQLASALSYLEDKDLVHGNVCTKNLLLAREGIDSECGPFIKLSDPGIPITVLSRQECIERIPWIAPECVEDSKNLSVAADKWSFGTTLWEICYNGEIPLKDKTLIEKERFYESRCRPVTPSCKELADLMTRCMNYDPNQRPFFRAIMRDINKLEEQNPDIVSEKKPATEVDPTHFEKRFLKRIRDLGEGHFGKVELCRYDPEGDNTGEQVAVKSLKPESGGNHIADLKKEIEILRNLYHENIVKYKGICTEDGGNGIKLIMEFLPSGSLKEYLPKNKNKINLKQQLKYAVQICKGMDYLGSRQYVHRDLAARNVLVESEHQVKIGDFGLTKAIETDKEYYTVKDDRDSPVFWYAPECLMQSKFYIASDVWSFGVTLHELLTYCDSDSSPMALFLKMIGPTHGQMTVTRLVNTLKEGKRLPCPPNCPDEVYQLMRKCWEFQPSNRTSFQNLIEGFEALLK
Briefly: JAK tyrosine kinase inhibitory activity in the presence of 1 mM ATP (ELISA), JAK1. In a few lines:
as §1

A further test concerns the target T3, JAK3 (Homo sapiens, UniProt P52333).
T3 construct: purchased Carna Biosciences, Inc
T3 sequence (P52333 1-1124): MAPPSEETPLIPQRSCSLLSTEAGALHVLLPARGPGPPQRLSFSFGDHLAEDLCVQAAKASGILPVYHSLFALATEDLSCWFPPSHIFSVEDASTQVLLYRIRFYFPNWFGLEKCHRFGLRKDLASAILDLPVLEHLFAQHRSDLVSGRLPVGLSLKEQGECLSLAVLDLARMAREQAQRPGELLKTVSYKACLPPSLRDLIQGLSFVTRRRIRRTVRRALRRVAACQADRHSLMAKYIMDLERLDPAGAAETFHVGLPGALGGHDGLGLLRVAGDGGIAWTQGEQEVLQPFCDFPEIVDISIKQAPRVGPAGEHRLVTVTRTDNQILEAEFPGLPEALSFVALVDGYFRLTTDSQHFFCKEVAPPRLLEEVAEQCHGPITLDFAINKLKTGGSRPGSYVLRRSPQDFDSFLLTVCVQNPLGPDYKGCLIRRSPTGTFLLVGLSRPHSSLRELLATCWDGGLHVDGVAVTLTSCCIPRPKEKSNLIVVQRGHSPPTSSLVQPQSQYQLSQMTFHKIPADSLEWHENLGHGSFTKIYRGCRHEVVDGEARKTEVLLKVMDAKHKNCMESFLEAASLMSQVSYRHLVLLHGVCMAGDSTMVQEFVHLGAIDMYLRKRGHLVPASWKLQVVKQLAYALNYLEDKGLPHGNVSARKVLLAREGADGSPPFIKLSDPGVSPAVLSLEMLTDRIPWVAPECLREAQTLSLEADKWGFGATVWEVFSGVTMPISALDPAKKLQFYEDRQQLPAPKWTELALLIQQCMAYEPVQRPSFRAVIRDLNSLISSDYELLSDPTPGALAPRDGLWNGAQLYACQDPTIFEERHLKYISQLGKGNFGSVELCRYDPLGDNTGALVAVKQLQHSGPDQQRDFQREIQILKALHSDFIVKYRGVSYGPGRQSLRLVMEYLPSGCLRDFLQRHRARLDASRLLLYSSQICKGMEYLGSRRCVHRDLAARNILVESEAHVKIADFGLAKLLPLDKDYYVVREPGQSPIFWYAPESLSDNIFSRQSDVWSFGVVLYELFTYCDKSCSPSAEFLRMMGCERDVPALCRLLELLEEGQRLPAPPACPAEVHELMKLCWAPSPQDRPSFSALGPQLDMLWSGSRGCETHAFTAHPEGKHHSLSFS
Briefly: JAK tyrosine kinase inhibitory activity in the presence of 1 mM ATP (ELISA), JAK3. In a few lines:
as §1

T1 sequence (O60674 whole entry): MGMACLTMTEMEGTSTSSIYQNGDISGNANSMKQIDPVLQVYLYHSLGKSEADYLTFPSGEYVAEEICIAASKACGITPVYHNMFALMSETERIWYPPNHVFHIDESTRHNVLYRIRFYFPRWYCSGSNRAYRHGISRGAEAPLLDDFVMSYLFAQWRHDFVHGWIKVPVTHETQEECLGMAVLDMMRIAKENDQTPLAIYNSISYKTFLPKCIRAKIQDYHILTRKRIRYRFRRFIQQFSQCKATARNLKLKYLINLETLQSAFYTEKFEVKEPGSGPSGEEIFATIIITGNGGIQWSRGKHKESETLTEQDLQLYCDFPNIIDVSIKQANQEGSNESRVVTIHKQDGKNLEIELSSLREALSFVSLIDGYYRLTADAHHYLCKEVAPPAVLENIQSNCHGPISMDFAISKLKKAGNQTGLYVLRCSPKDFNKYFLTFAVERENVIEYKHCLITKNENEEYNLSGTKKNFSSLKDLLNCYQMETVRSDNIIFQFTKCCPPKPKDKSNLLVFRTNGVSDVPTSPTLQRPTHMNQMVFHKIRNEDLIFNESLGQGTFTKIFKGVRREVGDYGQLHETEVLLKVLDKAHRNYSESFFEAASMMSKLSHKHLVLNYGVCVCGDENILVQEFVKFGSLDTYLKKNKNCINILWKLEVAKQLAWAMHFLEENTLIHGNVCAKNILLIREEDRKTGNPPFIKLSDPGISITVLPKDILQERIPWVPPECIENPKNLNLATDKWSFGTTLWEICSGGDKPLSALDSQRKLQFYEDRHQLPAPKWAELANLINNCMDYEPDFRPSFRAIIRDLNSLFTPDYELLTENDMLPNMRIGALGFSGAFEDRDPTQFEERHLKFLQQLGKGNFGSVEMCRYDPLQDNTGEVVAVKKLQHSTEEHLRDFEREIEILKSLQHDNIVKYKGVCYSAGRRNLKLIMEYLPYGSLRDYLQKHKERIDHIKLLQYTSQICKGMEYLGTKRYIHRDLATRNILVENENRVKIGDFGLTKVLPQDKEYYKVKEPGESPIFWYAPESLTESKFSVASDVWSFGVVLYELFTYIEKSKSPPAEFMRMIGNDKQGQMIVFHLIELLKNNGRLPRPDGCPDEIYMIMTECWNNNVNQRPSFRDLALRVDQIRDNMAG

Consider `CCCOC(=O)NC1CCN(C(=O)c2cc(N[C@H](C)C(C)(C)C)nc(-c3cnn4ccsc34)n2)CC1` [Example 85, Propyl (1-{[6-{[(2R)-3,3-dimethylbutan-2-yl]amino}-2-(pyrazolo[5,1-b][1,3]thiazol-7-yl)pyrimidin-4-yl]carbonyl}piperidin-4-yl)carbamate], for which the IC50 came out at 2200 nM at JAK2, 330 nM on JAK1 and 2300 nM on JAK3.

Regarding `COCCOC(=O)NC1CCN(C(=O)c2cc(N[C@H](C)C3CC3)nc(-c3cnn4ccsc34)n2)CC1` [Example 88, 2-Methoxyethyl (1-{[6-{[(1R)-1-cyclopropylethyl]amino}-2-(pyrazolo[5,1-b][1,3]thiazol-7-yl)pyrimidin-4-yl]carbonyl}piperidin-4-yl)carbamate], the IC50 turned out to be 1000 nM on JAK2, 190 nM on JAK1 and 4100 nM on JAK3.

On to `COCCOC(=O)NC1CCN(C(=O)c2cc(N[C@H](C)C(C)(C)C)nc(-c3cnn4ccsc34)n2)CC1` [Example 90, 2-Methoxyethyl (1-{[6-{[(2R)-3,3-dimethylbutan-2-yl]amino}-2-(pyrazolo[5,1-b][1,3]thiazol-7-yl)pyrimidin-4-yl]carbonyl}piperidin-4-yl)carbamate], for which the values for the IC50 on JAK2, on JAK1 and at JAK3 were 1200 nM, 620 nM and 1800 nM, respectively.

In the case of `COCC(=O)NC1CCN(C(=O)c2cc(N[C@H](C)C(C)(C)C)nc(-c3cnn4ccsc34)n2)CC1` [Example 93, N-(1-{[6-{[(2R)-3,3-Dimethylbutan-2-yl]amino}-2-(pyrazolo[5,1-b][1,3]thiazol-7-yl)pyrimidin-4-yl]carbonyl}piperidin-4-yl)-2-methoxyacetamide], the IC50 on JAK2 amounted to 1200 nM; at JAK1 it was 40 nM; at JAK3 it was 1000 nM.

`CC(C)(C)CNc1cc(C(=O)N2CCC(O)CC2)nc(-c2cnn3ccsc23)n1` [Example 94, {6-[(2,2-Dimethylpropyl)amino]-2-(pyrazolo[5,1-b][1,3]thiazol-7-yl)pyrimidin-4-yl}(4-hydroxypiperidin-1-yl)methanone]: the IC50 on JAK2 was found to be 2200 nM; at JAK1 it was 1900 nM; on JAK3 it was 5400 nM.

With `C[C@H](Nc1cc(C(=O)N2CCC(NC(=O)OCC(F)F)CC2)nc(-c2cnn3ccsc23)n1)C1CC1` [Example 98, 2,2-Difluoroethyl (l-{[6-{[(1S)-1-cyclopropylethyl]amino}-2-(pyrazolo[5,1-b][1,3]thiazol-7-yl)pyrimidin-4-yl]carbonyl}piperidin-4-yl)carbamate], the results for the IC50 on JAK2, at JAK1 and on JAK3 were 1400 nM, 37 nM and 1400 nM, respectively.

`C[C@H](Nc1cc(C(=O)N2CCC(NC(=O)OCC(F)F)CC2)nc(-c2cnn3ccsc23)n1)C(C)(C)C` [Example 99, 2,2-Difluoroethyl (1-{[6 {[(2S) 3,3-dimethylbutan-2-yl]amino}-2-(pyrazolo[5,1-b][1,3]thiazol-7-yl)pyrimidin-4-yl]carbonyl}piperidin-4-yl)carbamate]: the IC50 came to 790 nM on JAK2, 19 nM at JAK1 and 2600 nM at JAK3.

With `C[C@@H](Nc1cc(C(=O)N2CCC(NC(=O)OC(C)(C)C)CC2)nc(-c2cnn3ccsc23)n1)C(C)(C)C` [Example 100, tert-Butyl (1-{[6-{[(2R)-3,3-dimethylbutan-2-yl]amino}-2-(pyrazolo[5,1-b][1,3]thiazol-7-yl)pyrimidin-4-yl]carbonyl}piperidin-4-yl)carbamate], the IC50 at JAK2 worked out at 3000 nM; on JAK1, 140 nM; on JAK3, 3400 nM.

Take `COCCOC(=O)NC1CCN(C(=O)c2cc(NC(C)(C)C)nc(-c3cnn4ccsc34)n2)CC1` [Example 101]: the IC50 was found to be 1800 nM at JAK2, 98 nM at JAK1 and 3100 nM at JAK3.

For `C[C@@H](Nc1cc(C(=O)N2CCC(NC(=O)OCCN(C)C)CC2)nc(-c2cnn3ccsc23)n1)C(C)(C)C` [Example 102, 2-(Dimethylamino)ethyl (1-{[6-{[(2R)-3,3-dimethylbutan-2-yl]amino}-2-(pyrazolo[5,1-b][1,3]thiazol-7-yl)pyrimidin-4-yl]carbonyl}piperidin-4-yl)carbamate], the IC50 was found to be 1300 nM at JAK2, 24 nM on JAK1 and 1700 nM on JAK3.

For the molecule `C[C@@H](Nc1cc(C(=O)N2CCC(NC(=O)OCC(F)(F)F)CC2)nc(-c2cnn3ccsc23)n1)C1CC1` [Example 103, 2,2,2-Trifluoroethyl (1-{[6-{[(1R)-1-cyclopropylethyl]amino}-2-(pyrazolo[5,1-b][1,3]thiazol 7-yl)pyrimidin-4-yl]carbonyl}piperidin-4-yl)carbamate], the IC50 amounted to 2400 nM at JAK2, 140 nM on JAK1 and 5900 nM on JAK3.

For the molecule `C[C@@H](Nc1cc(C(=O)N2CCC(NC(=O)OCC(F)(F)F)CC2)nc(-c2cnn3ccsc23)n1)C(C)(C)C` [Example 104, 2,2,2-Trifluoroethyl (1-{[6-{[(2R)-3,3-dimethylbutan-2-yl]amino}-2-(pyrazolo[5,1-b][1,3]thiazol-7-yl)pyrimidin-4-yl]carbonyl}piperidin-4-yl)carbamate], the IC50 at JAK2 turned out to be 3000 nM; on JAK1, 200 nM; on JAK3 it was 3400 nM.

Take `CCC(CC)Nc1cc(C(=O)N2CCC(NC(=O)COC)CC2)nc(-c2cnn3ccsc23)n1` [Example 106, 2-Methoxy-N-(1-{[6-(pentan-3-ylamino)-2-(pyrazolo[5,1-b][1,3]thiazol-7-yl)pyrimidin-4-yl]carbonyl}piperidin-4-yl)acetamide]: the IC50 at JAK2 stood at 1300 nM; at JAK1, 600 nM; at JAK3 it was 2800 nM.

With `CCC(CC)COc1cc(C(=O)N2CCC(NC(=O)C3CC3)CC2)nc(-c2cnn3ccsc23)n1` [Example 107, N-(1-{[6-(2-Ethylbutoxy)-2-(pyrazolo[5,1-b][1,3]thiazol-7-yl)pyrimidin-4-yl]carbonyl}piperidin-4-yl)cyclopropanecarboxamide], the IC50 at JAK2 is 3500 nM; on JAK1 it was 200 nM; at JAK3, 1600 nM.

`CCC(CC)Oc1cc(C(=O)N2CCC(NC(=O)OC)CC2)nc(-c2cnn3ccsc23)n1` [Example 108, Methyl (1-{[6-(pentan-3-yloxy)-2-(pyrazolo[5,1-b][1,3]thiazol-7-yl)pyrimidin-4-yl]carbonyl}piperidin-4-yl)carbamate]: the IC50 is 2500 nM at JAK2, 200 nM at JAK1 and more than 10000 nM at JAK3.

For `CCC(CC)Nc1cc(C(=O)N2CCC(NC(=O)OC)CC2)nc(-c2cnn3ccsc23)n1` [Example 109, Methyl (1-{[6-(pentan-3-ylamino)-2-(pyrazolo[5,1-b][1,3]thiazol-7-yl)pyrimidin-4-yl]carbonyl}piperidin-4-yl)carbamate], the IC50 at JAK2 is 1800 nM; on JAK1, 190 nM; on JAK3 it was 2400 nM.

Consider `CCC(CC)CNc1cc(C(=O)N2CCC(NC(=O)C3CC3)CC2)nc(-c2cnn3ccsc23)n1` [Example 110, N-[1-({6-[(2-Ethylbutyl)amino]-2-(pyrazolo[5,1-b][1,3]thiazol-7-yl)pyrimidin-4-yl}carbonyl)piperidin-4-yl]cyclopropanecarboxamide], for which the IC50 on JAK2 is 880 nM; at JAK1, 78 nM; on JAK3, more than 10000 nM.

Regarding `CCC(CC)Oc1cc(C(=O)N2CCC(NC(=O)C3CC3)CC2)nc(-c2cnn3ccsc23)n1` [Example 111, N-(1-{[6-(Pentan-3-yloxy)-2-(pyrazolo[5,1-b][1,3]thiazol-7-yl)pyrimidin-4-yl]carbonyl}piperidin-4-yl)cyclopropanecarboxamide], the IC50 at JAK2 is 2400 nM; at JAK1 it was 120 nM; at JAK3, more than 10000 nM.

As to `CCC(CC)N(C)c1cc(C(=O)N2CCC(NC(=O)OC)CC2)nc(-c2cnn3ccsc23)n1` [Example 112, Methyl [1-({6-[methyl(pentan-3-yl)amino]-2-(pyrazolo[5,1-b][1,3]thiazol-7-yl)pyrimidin-4-yl}carbonyl)piperidin-4-yl]carbamate], the IC50 on JAK2 worked out at 3500 nM; on JAK1, 350 nM; at JAK3, 2900 nM.
